According to patent publication US9187465B2, “Oxazole tyrosine kinase inhibitors” (Sareum Limited, priority 2007, dated 2015):

Columns and labels:
[1] = molecular target: T1, human FLT4 (Homo sapiens, UniProt P35916); test: FLT4 kinase assay (DELFIA enzyme inhibition); type: biochemical; conditions: read-out: FLT4 IC50
T1 construct: a construct expressing the human FLT4 (789-1207) with an amino terminal GST tag; host or cells: Sf9 insect cells (baculovirus)
Experimental: A GST-kinase fusion protein of 70 KDa was produced using sf9 baculovirus expression system, with a construct expressing the human FLT4 (789-1207) with an amino terminal GST tag. The protein was purified by affinity chromatography using glutathione-agarose followed by separation on a gel filtration column.
FLT4 enzyme activity is determined using a Dissociation Enhanced Lanthanide Fluorescent Immunoassay (DELFIA) with a peptide substrate derived from the MET (Tyr 1253) peptide […] with a core sequence […].
The amount of phosphorylated peptide produced is detected by means of a phospho-Tyrosine specific Europium-labelled antibody using Time-Resolved Fluorescence at Excitation 360-35 nm and Emission 620-35 nm.
Assay reactions are set up in a 25 uL final volume on a 96 well plate. […] The reaction is allowed to proceed for 30 minutes at room temperature before stopping with 100 uL Stop solution comprising of 100 mM EDTA, 1×BSA blocker in TBS (Perbio) and 0.05% Surfact-Amps20 (Perbio).
The stopped reaction is transferred to a black 96-well Neutravidin-coated plate (Perbio) and incubated for 30 minutes to capture the biotinylated peptide substrate. After washing wells 3 times with 200 uL TBS/T buffer, Anti-Phospho-Tyr-100 antibody labelled with Eu—N1 (Perkin Elmer AD0159) is added to all wells for 60 minutes at room temperature. After a repeat washing step, DELFIA Enhancement solution (Perkin Elmer) is added to all wells for 5 minutes and the fluorescence measured on a plate reader Analyst HT (Molecular Devices).
The % inhibition of the activity is calculated and plotted in order to determine the concentration of test compound required to inhibit 50% of the enzyme activity (IC50).

[2] = molecular target: T2, human Aurora A (Homo sapiens, UniProt O14965); test: Aurora A kinase assay (DELFIA enzyme inhibition); type: biochemical; conditions: read-out: Aurora A IC50
T2 construct: Histidine tag (N); host or cells: Sf9 insect cells (baculovirus)
T2 sequence (O14965 1-403): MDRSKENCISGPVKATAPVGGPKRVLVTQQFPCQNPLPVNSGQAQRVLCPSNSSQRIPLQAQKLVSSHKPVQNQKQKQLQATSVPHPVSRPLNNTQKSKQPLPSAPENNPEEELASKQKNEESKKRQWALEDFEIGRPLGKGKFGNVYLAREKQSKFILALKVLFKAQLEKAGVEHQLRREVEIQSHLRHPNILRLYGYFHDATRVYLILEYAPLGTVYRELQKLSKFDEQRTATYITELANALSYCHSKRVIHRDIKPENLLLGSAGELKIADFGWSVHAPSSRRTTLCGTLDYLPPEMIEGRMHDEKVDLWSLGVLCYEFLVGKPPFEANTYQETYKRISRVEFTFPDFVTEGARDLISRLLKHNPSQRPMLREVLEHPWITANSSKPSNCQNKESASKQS
Experimental: The protein was purified by one-step affinity chromatography using nickel-agarose […]
Assay reactions are set up in a 25 uL final volume on a 96 well plate. […] The reaction is allowed to proceed for 30 minutes at room temperature before stopping with 100 μL Stop solution comprising of 100 mM EDTA, 1×BSA blocker in TBS (Perbio) and 0.05% Surfact-Amps20 (Perbio).
The stopped reaction is transferred to a black 96-well Neutravidin-coated plate (Perbio) and incubated for 30 minutes to capture the biotinylated peptide substrate. […] After repeating the washing step, the plate is further incubated for one hour with Europium-labelled anti-rabbit antibody (Perkin Elmer AD0105). The wash step is repeated for a final time before DELFIA Enhancement solution (Perkin Elmer) is added to all wells for 5 minutes and the fluorescence measured on a plate reader Analyst HT (Molecular Devices).

T1 sequence (P35916 789-1207): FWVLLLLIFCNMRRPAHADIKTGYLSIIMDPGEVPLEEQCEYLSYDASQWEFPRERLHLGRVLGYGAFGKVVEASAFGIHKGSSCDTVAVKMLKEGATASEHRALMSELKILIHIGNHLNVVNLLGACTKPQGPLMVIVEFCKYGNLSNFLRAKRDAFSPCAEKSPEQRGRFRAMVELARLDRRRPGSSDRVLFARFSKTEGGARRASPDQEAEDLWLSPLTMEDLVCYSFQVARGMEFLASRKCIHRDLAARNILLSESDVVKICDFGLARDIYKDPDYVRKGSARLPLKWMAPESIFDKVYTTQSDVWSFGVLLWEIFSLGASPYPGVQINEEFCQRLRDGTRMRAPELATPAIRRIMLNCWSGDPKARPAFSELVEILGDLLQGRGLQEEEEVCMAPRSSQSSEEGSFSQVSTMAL

Row | IC50 [1] | IC50 [2] | SMILES
1 | < 100 µM | < 100 µM | COc1ccc(-c2nc(-c3ccccc3Cl)[nH]c2C(N)=O)cc1 [Example A-2, 2-(2-chlorophenyl)-4-(4-methoxyphenyl)-1H-imidazole-5-carboxamide]
2 | < 100 µM | < 100 µM | COc1ccc(-c2nc(-c3ccccc3OC)[nH]c2C(N)=O)cc1 [Example A-3, 2-(2-methoxyphenyl)-4-(4-methoxyphenyl)-1H-imidazole-5-carboxamide]
3 | < 100 µM | < 100 µM | COc1ccc(-c2nc(-c3cccc(OC)c3)[nH]c2C(N)=O)cc1 [Example A-4, 2-(3-methoxyphenyl)-4-(4-methoxyphenyl)-1H-imidazole-5-carboxamide]
4 | < 100 µM | < 100 µM | COc1ccc(-c2nc(-c3ccc(OC)cc3)c(C(N)=O)[nH]2)cc1 [Example A-5, 2,4-bis(4-methoxyphenyl)-1H-imidazole-5-carboxamide]
5 | < 100 µM | < 100 µM | COc1ccc(-c2nc(-c3ccccc3C)[nH]c2C(N)=O)cc1 [Example A-6, 4-(4-methoxyphenyl)-2-o-tolyl-1H-imidazole-5-carboxamideHH]
6 | < 100 µM | < 100 µM | COc1ccc(-c2nc(-c3cccc(C)c3)[nH]c2C(N)=O)cc1 [Example A-7, 4-(4-methoxyphenyl)-2-m-tolyl-1H-imidazole-5-carboxamide]
7 | < 100 µM | < 100 µM | COc1ccc(-c2nc(-c3ccc(C)cc3)[nH]c2C(N)=O)cc1 [Example A-8, 4-(4-methoxyphenyl)-2-p-tolyl-1H-imidazole-5-carboxamide]
8 | < 100 µM | < 100 µM | COc1ccc(-c2nc(-c3c(Cl)cccc3Cl)[nH]c2C(N)=O)cc1 [Example A-10, 2-(2,6-dichlorophenyl)-4-(4-methoxyphenyl)-1H-imidazole-5-carboxamide]
9 | < 100 µM | < 100 µM | COc1ccc(-c2nc(-c3ccccc3F)[nH]c2C(N)=O)cc1 [Example A-11, 2-(2-fluorophenyl)-4-(4-methoxyphenyl)-1H-imidazole-5-carboxamide]
10 | < 100 µM | < 100 µM | COc1ccc(-c2nc(-c3cccnc3)[nH]c2C(N)=O)cc1 [Example A-12, 4-(4-methoxyphenyl)-2-(pyridin-3-yl)-1H-imidazole-5-carboxamide]
11 | < 10 µM | < 100 µM | COc1ccc(-c2nc(-c3c[nH]c4ccccc34)[nH]c2C(N)=O)cc1 [Example A-13, 2-(1H-indol-3-yl)-4-(4-methoxyphenyl)-1H-imidazole-5-carboxamide]
12 | < 100 µM | < 100 µM | COc1ccc(-c2nc(-c3c(F)cc(Br)cc3F)[nH]c2C(N)=O)cc1 [Example A-14, 2-(4-bromo-2,6-difluorophenyl)-4-(4-methoxyphenyl)-1H-imidazole-5-carboxamide]
13 | < 100 µM | < 100 µM | COc1ccc(-c2nc(-c3c(F)cccc3Cl)[nH]c2C(N)=O)cc1 [Example A-15, 2-(2-chloro-6-fluorophenyl)-4-(4-methoxyphenyl)-1H-imidazole-5-carboxamide]
14 | < 10 µM | < 100 µM | NC(=O)c1[nH]c(-c2c(F)cccc2F)nc1-c1cccs1 [Example A-16, 2-(2,6-difluorophenyl)-4-(thiophen-2-yl)-1H-imidazole-5-carboxamide]
15 | < 100 µM | < 100 µM | COc1ccc(-c2nc(-c3ccncc3)[nH]c2C(N)=O)cc1 [Example B-1, 4-(4-methoxyphenyl)-2-(pyridin-4-yl)-1H-imidazole-5-carboxamide]
16 | < 100 µM | < 100 µM | COc1ccc(-c2nc(-c3csc4ccccc34)[nH]c2C(N)=O)cc1 [Example B-3, 2-(benzo[b]thiophen-3-yl)-4-(4-methoxyphenyl)-1H-imidazole-5-carboxamide]

Row | IC50 [1] | IC50 [2] | SMILES
17 | < 100 µM | < 100 µM | COc1ccc(-c2nc(-c3cn(C)c4ccccc34)[nH]c2C(N)=O)cc1 [Example B-4, 4-(4-methoxyphenyl)-2-(1-methyl-1H-indol-3-yl)-1H-imidazole-5-carboxamide]
18 | < 100 µM | < 100 µM | COc1ccc(-c2nc(-c3c(F)cccc3F)[nH]c2C(N)=O)cc1 [Example B-5, 2-(2,6-difluorophenyl)-4-(4-methoxyphenyl)-1H-imidazole-5-carboxamide]
19 | < 100 µM | < 100 µM | NC(=O)c1[nH]c(-c2c(F)cccc2F)nc1-c1ccccn1 [Example C-1, 2-(2,6-difluorophenyl)-4-(pyridin-2-yl)-1H-imidazole-5-carboxamide]
20 | < 10 µM | < 100 µM | COc1ccc(-c2oc(-c3c(F)cccc3F)nc2C(N)=O)cc1 [Example E-2, 2-(2,6-difluorophenyl)-5-(4-methoxyphenyl)oxazole-4-carboxamide]
21 | < 10 µM | < 100 µM | CN(C)c1ccc(-c2oc(-c3c(F)cccc3F)nc2C(N)=O)cc1 [Example F-3, 2-(2,6-difluorophenyl)-5-(4-(dimethylamino)phenyl)oxazole-4-carboxamide]
22 | < 10 µM | < 100 µM | NC(=O)c1nc(-c2c(F)cccc2F)oc1-c1ccsc1 [Example F-5, 2-(2,6-difluorophenyl)-5-(thiophen-3-yl)oxazole-4-carboxamide]
23 | < 10 µM | < 10 µM | NC(=O)c1nc(-c2c(F)cccc2F)oc1-c1ccncc1 [Example F-8, 2-(2,6-difluorophenyl)-5-(pyridin-4-yl)oxazole-4-carboxamide]
24 | < 10 µM | < 10 µM | NC(=O)c1ccc(-c2oc(-c3c(F)cccc3F)nc2C(N)=O)cc1 [Example F-17, 5-(4-carbamoylphenyl)-2-(2,6-difluorophenyl)oxazole-4-carboxamide]
25 | < 10 µM | < 100 µM | CC(=O)Nc1ccc(-c2oc(-c3c(F)cccc3F)nc2C(N)=O)cc1 [Example F-23, 5-(4-acetamidophenyl)-2-(2,6-difluorophenyl)oxazole-4-carboxamide]
26 | < 10 µM | < 100 µM | NC(=O)c1nc(-c2c(F)cccc2F)oc1-c1cccc(C(=O)N2CCCCC2)c1 [Example F-31, 2-(2,6-Difluorophenyl)-5-(3-(piperidine-1-carbonyl)phenyl)oxazole-4-carboxamide]
27 | < 10 µM | < 10 µM | NC(=O)c1nc(-c2c(F)cccc2F)oc1-c1ccc(NCCN2CCCCC2)cc1 [Example F-32, 2-(2,6-difluorophenyl)-5-(4-(2-(piperidin-1-yl)ethylamino)phenyl)oxazole-4-carboxamide]
28 | – | < 100 µM | COc1ccc(-c2oc(-c3ccc(C(F)(F)F)cc3)nc2C(N)=O)cc1 [Example N-4, 5-(4-methoxyphenyl)-2-(4-(trifluoromethyl)phenyl)oxazole-4-carboxamide]
29 | – | < 100 µM | COc1ccc(-c2oc(-c3ccc(C(F)(F)F)cc3F)nc2C(N)=O)cc1 [Example N-5, 2-(2-fluoro-4-(trifluoromethyl)phenyl)-5-(4-methoxyphenyl)oxazole-4-carboxamide]
30 | – | < 100 µM | COc1ccc(-c2oc(-c3cc(C(F)(F)F)ccc3F)nc2C(N)=O)cc1 [Example N-6, 2-(2-fluoro-5-(trifluoromethyl)phenyl)-5-(4-methoxyphenyl)oxazole-4-carboxamide]
31 | – | < 100 µM | COc1ccc(-c2oc(-c3ccc(C)cc3)nc2C(N)=O)cc1 [Example N-9, 5-(4-methoxyphenyl)-2-p-tolyloxazole-4-carboxamide]
32 | – | < 10 µM | COc1ccc(-c2oc(Nc3c(F)cccc3F)nc2C(N)=O)cc1 [Example R-9, 2-(2,6-difluorophenylamino)-5-(4-methoxyphenyl)oxazole-4-carboxamide]
